In US8569297B2, “1-benzyl-3-hydroxymethylindazole derivatives and use thereof in the treatment of diseases based on the expression of MCP-1 and CX3CR1” (Aziende Chimiche Riunite Angelini Francesco A.C.R.A.F. …, priority 2008, dated 2013):

Experiments:
MCP-1 [1] = experiment: Measurement of the production of MCP-1 in a human monocyte line (ELISA); assay type: cell-based; conditions: MONO-MAC-6, 150 μM (maximum soluble concentration), 1 hour pre-incubation, MonoMac6 cells stimulated with LPS 100 ng/ml for 20 hours, supernatant ELISA, read-out: % inhibition of LPS-induced MCP-1 production (produced protein)
Description: (§1) The capacity of the compounds 1 and 2 to inhibit the expression of the protein MCP-1 by lipopolysaccharide (LPS)-stimulated MonoMac6 cells was evaluated. The cells were placed in 96-well plates at a concentration of 50 000 cells/well. The compounds were tested at the maximum soluble concentration given in Table 2 (in the range 30-300 μM) and incubated for 1 hour. The cells were then stimulated with LPS (100 ng/ml) for 20 hours.
The amount of MCP-1 produced was measured in the supernatants, suitably diluted with buffer, by means of an immunoenzymatic test (ELISA) using a commercial kit (ELISA MCP-1/JE, R&D Systems).
The results obtained, expressed as a percentage of inhibition, are collated in Table 2 below.

CX3CR1 = experiment: Analysis of the gene expression of CX3CR1 in a human monocyte line (real-time RT-PCR); assay type: cell-based; conditions: 150 μM (maximum soluble concentration), 1 hour pre-incubation; MonoMac6 cells stimulated with LPS 100 ng/ml for 20 hours
Description: as §1, with “of compound” for “of the compounds”, “1” for “1 and 2”, “of CX3CR1” for “of the protein MCP-1”, “The compound was” for “The compounds were”, “Table 3” for “Table 2”
(§2) The total RNA was extracted from the cell pellet using the RNeasy mini kit (Qiagen), reverse-transcribed with the TaqMan Reverse transcription reagents synthesis kit (Applied Biosystems) and the cDNA obtained was used for the real-time PCR reaction. The amplification was obtained in 96-well plates using the ABI Prism 7000 sequence detection system (Applied Biosystems), by applying the following temperature profile: 50° C. for 2 minutes, 95° C. for 10 minutes and 45 cycles at 95° C. for 15 seconds and 60° C. for 1 minute. For the amplification, a set of primers and probe specific for human CX3CR1 was used (Applied Biosystems, RefSeq NM_001337.3). […] Once the reaction had taken place, the fluorescence data were analysed using the ABI Prism 7000 SDS software, by calculating the threshold cycle (Ct) for each sample and subsequently performing a relative quantification via the ΔΔCt method.
The results obtained, expressed as a percentage of inhibition, are collated in Table 3 below.

MCP-1 [2] = experiment: Analysis of the gene expression of MCP-1 in a human monocyte line (real-time RT-PCR); assay type: cell-based; conditions: 150 μM (maximum soluble concentration), 1 hour pre-incubation; MonoMac6 cells stimulated with LPS 100 ng/ml for 4 hours
Description: as §1, with “compound” for “the compounds”, “1” for “1 and 2”, “of” for “of the protein”, “compound was” for “compounds were”, “1” for “2”, “4” for “20”
as §2, with “MCP-1” for “CX3CR1”, “NM_002982.3).” for “NM_001337.3).”
The results obtained, expressed as a percentage of inhibition, are collated in Table 1 below.

Row | melting point | SMILES | inhibition at 150 µM (MCP-1 [1]) [%] | % inhibition of LPS-induced expression of CX3CR1 (specific mRNA) (CX3CR1) [%] | % inhibition of LPS-induced expression of MCP-1 (specific mRNA) (MCP-1 [2]) [%]
1 | 126 °C (dec.) | NCC(O)c1nn(Cc2ccccc2)c2ccccc12 (stereo not shown) [Compound 1, 2-amino-1-(1-benzyl-1H-indazol-3-yl)ethanol] | 73 | 96 | 64
2 |  | CCNCC(O)c1nn(Cc2ccccc2)c2ccccc12 (stereo not shown) [Compound 2, 1-(1-benzyl-1H-indazol-3-yl)-2-(ethylamino)ethanol] | 67 | 85 | 53
